Results: article PMC7507806 (ACS Pharmacology & Translational Science, 2020)
Read-outs that look alike come from different tables or passages of the source. Non-standard residues stand in square brackets, D forms with d. Residues, ends and D or L forms follow the SMILES beside them. *: point of attachment. Nva = CCC[C@H](N)C(=O)O; Cbz = O=C(OCc1ccccc1)*

Experiments:
SARS-CoV-2 3CL^pro [1] = molecular target: T1, SARS-CoV-2 3CL^pro (Severe acute respiratory syndrome coronavirus 2, UniProt P0DTD1); assay type: biochemical; settings: for IC50: read-out: 3CL^pro inhibition IC50
[2] = test system: SARS-CoV-2 (USA_WA1/2020); assay: SARS-CoV-2 cytopathic effect; assay type: cell-based; settings: Vero E6 cells; for EC50: read-out: SARS-CoV-2 CPE EC50
Vero E6 cells = settings: for CC50: read-out: Vero E6 cytotoxicity CC50
SARS-CoV-2 virus = settings: cited from earlier work
SARS-CoV-2 3CL^pro [3] = molecular target: T1, SARS-CoV-2 3CL^pro; settings: cited from earlier work
SARS-CoV-2 = settings: cited from earlier work
[4] = Table 2, compounds with partial fluorescence quenching effect

Row | Molecule | 3CL^pro inhibition max resp (SARS-CoV-2 3CL^pro [1]; Table 1 compounds) | SARS-CoV-2 CPE efficacy ([2]; 72 h, Table 1 compounds) | EC50 ([2]; 72 h, Table 1 compounds) | Vero E6 cytotoxicity efficacy (Vero E6 cells; no virus, Table 1 compounds) | CC50 (Vero E6 cells; no virus, Table 1 compounds) | further results
1 | O=C(O)c1ccc(N2C(=O)/C(=C\c3ccc(-c4ccc([N+](=O)[O-])cc4)o3)C=C2c2ccccc2)cc1 [4E1RCat] | 76.33% | 0% | > 20 µM | 0% | > 20 µM | IC50 (SARS-CoV-2 3CL^pro [1]): 18.3 µM
2 | CC#C[C@@H](CC(=O)O)c1ccc(OCc2cccc(-c3ccc(C(F)(F)F)cc3)c2)cc1 [AMG-837] |  |  |  |  |  | 3CL^pro inhibition max resp (SARS-CoV-2 3CL^pro [1]; [4]): 65.79%; SARS-CoV-2 CPE efficacy ([2]; Table 2 quenching compounds): 106.31%; Vero E6 cytotoxicity efficacy (Vero E6 cells; Table 2 quenching compounds): 20.2%
3 | CC(C)(C)NC(=O)N[C@H](C(=O)N1C[C@H]2[C@@H]([C@H]1C(=O)NC(CC1CCC1)C(=O)C(N)=O)C2(C)C)C(C)(C)C (some centres unmarked) [Boceprevir] |  |  |  |  |  | activity in CPE and viral yield reduction assays (SARS-CoV-2 virus): active in both CPE and viral yield reduction assays; EC50 (SARS-CoV-2 virus; read-out: EC50 against SARS-CoV-2 virus infection in the CPE assay): 1.9 µM
4 | CC1(C)OC2=C(C(=O)c3ccccc3C2=O)[C@H](NCc2ccccc2)[C@@H]1O [CAY-10581] |  | 0% | > 20 µM | 0% | > 20 µM | 
5 | O=C1C(Cl)=C(NCCN2CCOCC2)C(=O)c2ncccc21 [DA-3003–1] |  | 53.77% | 4.47 µM | 112% | 7.74 µM | activity in CPE assay [2]: exhibited CPE activity
6 | O=C(O)Cc1cccc(OCCCN(Cc2cccc(C(F)(F)F)c2Cl)CC(c2ccccc2)c2ccccc2)c1 [GSK-3965] |  |  |  |  |  | 3CL^pro inhibition max resp (SARS-CoV-2 3CL^pro [1]): 108.24%; IC50 (SARS-CoV-2 3CL^pro [1]): 21.5 µM; SARS-CoV-2 CPE efficacy ([2]; Table 2 quenching compounds): 22.51%; Vero E6 cytotoxicity efficacy (Vero E6 cells; Table 2 quenching compounds): 82.34%; CC50 (Vero E6 cells; Table 2 quenching compounds): 14.1 µM
7 | O=C1Nc2ccc(I)cc2/C1=C/c1cc(Br)c(O)c(Br)c1 [GW5074] |  |  |  |  |  | 3CL^pro inhibition max resp (SARS-CoV-2 3CL^pro [1]; [4]): 63.16%; Vero E6 cytotoxicity efficacy (Vero E6 cells; Table 2 quenching compounds): 20.1%; CC50 (Vero E6 cells; Table 2 quenching compounds): 11.2 µM
8 | Cc1cc(SCc2sc(-c3ccc(C(F)(F)F)c(F)c3)nc2C)ccc1OCC(=O)O [GW-0742] | 126.23% | 0% | > 20 µM | 0% | > 20 µM | 
9 | Cc1cccc(C)c1OCC(=O)N[C@@H](Cc1ccccc1)[C@@H](O)C[C@H](Cc1ccccc1)NC(=O)[C@H](C(C)C)N1CCCNC1=O [Lopinavir] |  |  |  |  |  | inhibition of 3CL^pro (SARS-CoV-2 3CL^pro [3]): did not show inhibition
10 | CCC[C@@H](C=O)NC(=O)[C@H](CC(C)C)NC(=O)[C@H](CC(C)C)NC(=O)OCc1ccccc1 [MG-115] (Cbz-Leu-Leu-[Nva]-aldehyde) | 74.89% |  |  | 115.48% | 1.13 µM | 
11 | CCCCCCCc1ccc(CCc2cccc(O)c2C(=O)O)cc1 [MG-149] |  |  |  |  |  | Vero E6 cytotoxicity efficacy (Vero E6 cells; Table 2 quenching compounds): 23.42%
12 | COc1ccc2cc(-c3cc(-c4cc(Cl)cc(Cl)c4)nn3[C@@H](C)c3ccc(C(=O)NCCC(=O)O)cc3)ccc2c1 [MK 0893] | 95.77% | 23.89% |  | 80.04% |  | 
13 | CC(C)c1ccc2c(c1)c(SC(C)(C)C)c(CC(C)(C)C(=O)O)n2Cc1ccc(Cl)cc1 [MK-886] |  |  |  |  |  | 3CL^pro inhibition max resp (SARS-CoV-2 3CL^pro [1]; [4]): 109.11%; Vero E6 cytotoxicity efficacy (Vero E6 cells; Table 2 quenching compounds): 40.83%; CC50 (Vero E6 cells; Table 2 quenching compounds): 14.1 µM
14 | Cc1cc(C(=O)N[C@@H](C)C(=O)N[C@H](C(=O)N[C@@H](CC(C)C)C(=O)NC(/C=C/C(=O)OCc2ccccc2)C[C@@H]2CCNC2=O)C(C)C)no1 (some centres unmarked) [N3] |  |  |  |  |  | antiviral activity in viral RNA quantification and plaque-reduction assays (SARS-CoV-2): strongest antiviral activity
15 | O=C1C(SCCO)=C(SCCO)C(=O)c2ccccc21 [NSC 95397] | 98.7% | 0% | > 20 µM | 111.33% | 14.1 µM | 
16 | O=C(Nc1cc(C(F)(F)F)cc(C(F)(F)F)c1)c1cnc(Cl)nc1C(F)(F)F [SP 100030] |  | 0% | > 20 µM | 0% | > 20 µM | 
17 | Cc1[nH]c(/C=C2\C(=O)Nc3cc(-c4ccccc4)ccc32)c(C)c1CCC(=O)O [SU 16f] |  | 0% | > 20 µM | 23.57% | 7.94 µM | 
18 | Brc1c(Br)c(Br)c2n[nH]nc2c1Br [TBB] | 77.96% |  |  | 80.93% | 8.91 µM | 

Row | Molecule | 3CL^pro inhibition max resp (SARS-CoV-2 3CL^pro [1]; Table 1 compounds) | SARS-CoV-2 CPE efficacy ([2]; 72 h, Table 1 compounds) | EC50 ([2]; 72 h, Table 1 compounds) | Vero E6 cytotoxicity efficacy (Vero E6 cells; no virus, Table 1 compounds) | CC50 (Vero E6 cells; no virus, Table 1 compounds) | further results
19 | Cc1cc(O[C@@H](CCC(F)(F)F)c2ccc(C(=O)NCCC(=O)O)cc2)cc(C)c1-c1ccc(C(C)(C)C)cc1 [adomeglivant] |  |  |  |  |  | SARS-CoV-2 CPE efficacy ([2]; Table 2 quenching compounds): 49.2%; Vero E6 cytotoxicity efficacy (Vero E6 cells; Table 2 quenching compounds): 36.97%
20 | CCCCCCCCCCCCCCCCC(C(=O)O)C(O)(CC(=O)O)C(=O)O (centres unmarked) [agaric acid] | 110.16% | 0% | > 20 µM | 0% | > 20 µM | 
21 | CCCCCCCCCCCCCCCc1cccc(O)c1C(=O)O [anacardic acid] |  |  |  |  |  | 3CL^pro inhibition max resp (SARS-CoV-2 3CL^pro [1]; [4]): 105.9%; SARS-CoV-2 CPE efficacy ([2]; Table 2 quenching compounds): 89.62%; EC50 ([2]; Table 2 quenching compounds): 3.98 µM; Vero E6 cytotoxicity efficacy (Vero E6 cells; Table 2 quenching compounds): 72.92%
22 | CC1(C)CCC2=C(O1)c1ccccc1C(=O)C2=O [beta-lapachone] | 60.88% | 0% |  | 15.06% |  | 
23 | CSCC[C@@H](C=O)NC(=O)[C@H](CC(C)C)NC(=O)[C@H](CC(C)C)NC(C)=O [calpain inhibitor II] (Ac-Leu-Leu-Met-aldehyde) |  |  |  |  |  | activity in CPE and viral yield reduction assays (SARS-CoV-2 virus): active in both CPE and viral yield reduction assays
24 | CCCC(NC(=O)C(CC(C)C)NC(=O)OCc1ccccc1)C(=O)C(=O)NCc1ccccn1 (centres unmarked) [calpain inhibitor XII] |  |  |  |  |  | activity in CPE and viral yield reduction assays (SARS-CoV-2 virus): active in both CPE and viral yield reduction assays
25 | O=c1c2ccccc2[se]n1-c1ccccc1 [ebselen] |  |  |  |  |  | antiviral activity in viral RNA quantification and plaque-reduction assays (SARS-CoV-2): strongest antiviral activity
26 | CC1=NN(c2ccc(C)c(C)c2)C(=O)/C1=N\Nc1cccc(-c2cccc(C(=O)O)c2)c1O [eltrombopag olamine] |  |  |  |  |  | SARS-CoV-2 CPE efficacy ([2]; Table 2 quenching compounds): 74.39%; Vero E6 cytotoxicity efficacy (Vero E6 cells; Table 2 quenching compounds): 68.67%
27 | O=C1c2ccccc2-[n+]2ccc3c([nH]c4ccccc43)c21 [fascaplysin] | 63.44% | 0% |  | 99.28% |  | 
28 | Oc1c(Cl)cc(Cl)c(Cl)c1Cc1c(O)c(Cl)cc(Cl)c1Cl [hexachlorophene] |  |  |  |  |  | Vero E6 cytotoxicity efficacy (Vero E6 cells; Table 2 quenching compounds): 63.02%
29 | C/C1=C2/[N-][C@H]([C@H](CC(N)=O)[C@@]2(C)CCC(=O)NC[C@@H](C)OP(=O)([O-])O[C@H]2[C@@H](O)[C@@H](n3cnc4cc(C)c(C)cc43)O[C@@H]2CO)[C@]2(C)N=C(/C(C)=C3N=C(/C=C4N=C1[C@@H](CCC(N)=O)C\4(C)C)[C@@H](CCC(N)=O)[C@]\3(C)CC(N)=O)[C@@H](CCC(N)=O)[C@]2(C)CC(N)=O.[Co+3].[OH-] [hydroxocobalamin] | 89.56% | 0% | > 20 µM | 0% | > 20 µM | activity in CPE assay [2]: neither effective in CPE assay; cytotoxicity to Vero E6 cells (Vero E6 cells): nor cytotoxic to Vero E6 cells
30 | CN[C@H](CC(C)C)C(=O)N[C@H]1C(=O)N[C@@H](CC(N)=O)C(=O)N[C@H]2C(=O)N[C@H]3C(=O)N[C@H](C(=O)N[C@H](C(=O)O)c4cc(O)cc(O)c4-c4cc3ccc4O)[C@H](O[C@H]3C[C@](C)(N)[C@@H](O)[C@H](C)O3)c3ccc(c(Cl)c3)Oc3cc2cc(c3O[C@@H]2O[C@H](CO)[C@@H](O)[C@H](O)[C@H]2O[C@H]2C[C@](C)(NCc3ccc(-c4ccc(Cl)cc4)cc3)[C@@H](O)[C@H](C)O2)Oc2ccc(cc2Cl)[C@H]1O.O=P(O)(O)O.O=P(O)(O)O [oritavancin (diphosphate)] | 93.29% | 0% | > 20 µM | 23.51% | 14.1 µM | 
31 | O.O=C(OC[C@H]1O[C@@H](OC(=O)c2cc(O)c(O)c(O)c2)[C@H](OC(=O)c2cc(O)c(O)c(O)c2)[C@@H](OC(=O)c2cc(O)c(O)c(O)c2)[C@@H]1OC(=O)c1cc(O)c(O)c(O)c1)c1cc(O)c(O)c(O)c1 [penta-O-galloyl-β-D-glucose hydrate] | 109.94% |  |  | 80.28% | 11.2 µM | 
32 | CC(C)c1nc(CN(C)C(=O)N[C@H](C(=O)N[C@@H](Cc2ccccc2)C[C@H](O)[C@H](Cc2ccccc2)NC(=O)OCc2cncs2)C(C)C)cs1 [ritonavir] |  |  |  |  |  | inhibition of 3CL^pro (SARS-CoV-2 3CL^pro [3]): did not show inhibition
33 | COCCn1c2c([n+](Cc3cnccn3)c1C)C(=O)c1ccccc1C2=O [sepantronium bromide] | 61.79% | 0% |  | 20.12% |  | 
34 | Cc1ccc(C(=O)Nc2ccc(S(=O)(=O)O)c3cc(S(=O)(=O)O)cc(S(=O)(=O)O)c23)cc1NC(=O)c1cccc(NC(=O)Nc2cccc(C(=O)Nc3cc(C(=O)Nc4ccc(S(=O)(=O)O)c5cc(S(=O)(=O)O)cc(S(=O)(=O)O)c45)ccc3C)c2)c1 [suramin sodium] | 99.49% | 0% |  | 0% |  | activity in CPE assay [2]: neither effective in CPE assay; cytotoxicity to Vero E6 cells (Vero E6 cells; African green monkey): nor cytotoxic to Vero E6 cells
35 | vitamin B12 |  | 0% | > 20 µM | 0% | > 20 µM | 3CL^pro inhibition max resp (SARS-CoV-2 3CL^pro [1]): 71.06%
